Measured values published in patent US20250136578A1 (Kolm Therapeutics Inc., priority 2023, published 2025).

How the values were obtained:
AR / CBP ternary complex = AR / CBP ternary complex (Homo sapiens, UniProt P10275+Q92793); test: Ternary complex formation assay (sandwich ELISA, AR capture, CBP antibody detection) in VCaP cell lysates; type: cell-based; settings: treated 1.5 hours, rabbit CBP or p300 antibody detection, average, read-out: Average Ternary Complex
Summary of the method: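 VCaP cells in 5% charcoal-stripped FBS were cultured ≥3 days and then given bifunctional compound for 1.5 h. Lysates went onto AR-antibody-coated plates. Bound CBP (or p300) was detected with a rabbit antibody plus HRP anti-rabbit, using QuantaRed chemifluorescence (ex 570/em 585) read immediately, at 5 min and at 15 min.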

VCaP cells = test: VCaP growth inhibition assay (CTG); type: cell-based; settings: Homo sapiens, 216 h, 30 pM R1881, 9 days
Summary of the method: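 VCaP cells in phenol red-free DMEM with 5% charcoal-stripped serum were stimulated with 30 pM R1881 (final) and treated with compound from 100 nM to 10 fM final (1:5 dilutions) for 9 days at 37 °C. Viability was read by CellTiter-Glo luminescence, and IC50 came from 4-parameter logistic fits.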

Chain of AR / CBP ternary complex (P10275 whole entry): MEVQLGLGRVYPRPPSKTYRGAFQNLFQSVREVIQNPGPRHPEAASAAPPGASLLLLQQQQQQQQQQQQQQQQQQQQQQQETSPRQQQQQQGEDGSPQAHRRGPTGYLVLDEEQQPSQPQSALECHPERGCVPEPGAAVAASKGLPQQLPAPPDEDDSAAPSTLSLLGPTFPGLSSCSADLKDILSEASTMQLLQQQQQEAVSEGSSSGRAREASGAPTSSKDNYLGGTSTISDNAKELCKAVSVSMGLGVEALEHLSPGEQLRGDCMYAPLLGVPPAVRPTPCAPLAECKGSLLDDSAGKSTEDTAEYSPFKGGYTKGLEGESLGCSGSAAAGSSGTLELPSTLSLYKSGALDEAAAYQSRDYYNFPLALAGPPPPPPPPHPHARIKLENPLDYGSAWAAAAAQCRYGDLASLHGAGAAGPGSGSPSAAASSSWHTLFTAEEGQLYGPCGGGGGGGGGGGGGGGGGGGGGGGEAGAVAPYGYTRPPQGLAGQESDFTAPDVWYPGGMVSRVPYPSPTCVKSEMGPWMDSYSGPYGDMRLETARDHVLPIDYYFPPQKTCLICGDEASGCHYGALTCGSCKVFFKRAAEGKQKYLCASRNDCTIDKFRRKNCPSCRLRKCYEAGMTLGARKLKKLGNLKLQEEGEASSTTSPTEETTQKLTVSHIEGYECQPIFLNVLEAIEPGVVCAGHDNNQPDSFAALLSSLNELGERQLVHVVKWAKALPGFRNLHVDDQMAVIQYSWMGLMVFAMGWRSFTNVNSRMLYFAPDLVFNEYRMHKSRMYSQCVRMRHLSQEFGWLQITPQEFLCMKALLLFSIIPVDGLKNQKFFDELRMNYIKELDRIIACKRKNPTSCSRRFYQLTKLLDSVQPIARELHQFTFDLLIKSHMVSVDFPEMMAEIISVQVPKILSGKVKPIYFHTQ
Chain of AR / CBP ternary complex (Q92793 2-2442): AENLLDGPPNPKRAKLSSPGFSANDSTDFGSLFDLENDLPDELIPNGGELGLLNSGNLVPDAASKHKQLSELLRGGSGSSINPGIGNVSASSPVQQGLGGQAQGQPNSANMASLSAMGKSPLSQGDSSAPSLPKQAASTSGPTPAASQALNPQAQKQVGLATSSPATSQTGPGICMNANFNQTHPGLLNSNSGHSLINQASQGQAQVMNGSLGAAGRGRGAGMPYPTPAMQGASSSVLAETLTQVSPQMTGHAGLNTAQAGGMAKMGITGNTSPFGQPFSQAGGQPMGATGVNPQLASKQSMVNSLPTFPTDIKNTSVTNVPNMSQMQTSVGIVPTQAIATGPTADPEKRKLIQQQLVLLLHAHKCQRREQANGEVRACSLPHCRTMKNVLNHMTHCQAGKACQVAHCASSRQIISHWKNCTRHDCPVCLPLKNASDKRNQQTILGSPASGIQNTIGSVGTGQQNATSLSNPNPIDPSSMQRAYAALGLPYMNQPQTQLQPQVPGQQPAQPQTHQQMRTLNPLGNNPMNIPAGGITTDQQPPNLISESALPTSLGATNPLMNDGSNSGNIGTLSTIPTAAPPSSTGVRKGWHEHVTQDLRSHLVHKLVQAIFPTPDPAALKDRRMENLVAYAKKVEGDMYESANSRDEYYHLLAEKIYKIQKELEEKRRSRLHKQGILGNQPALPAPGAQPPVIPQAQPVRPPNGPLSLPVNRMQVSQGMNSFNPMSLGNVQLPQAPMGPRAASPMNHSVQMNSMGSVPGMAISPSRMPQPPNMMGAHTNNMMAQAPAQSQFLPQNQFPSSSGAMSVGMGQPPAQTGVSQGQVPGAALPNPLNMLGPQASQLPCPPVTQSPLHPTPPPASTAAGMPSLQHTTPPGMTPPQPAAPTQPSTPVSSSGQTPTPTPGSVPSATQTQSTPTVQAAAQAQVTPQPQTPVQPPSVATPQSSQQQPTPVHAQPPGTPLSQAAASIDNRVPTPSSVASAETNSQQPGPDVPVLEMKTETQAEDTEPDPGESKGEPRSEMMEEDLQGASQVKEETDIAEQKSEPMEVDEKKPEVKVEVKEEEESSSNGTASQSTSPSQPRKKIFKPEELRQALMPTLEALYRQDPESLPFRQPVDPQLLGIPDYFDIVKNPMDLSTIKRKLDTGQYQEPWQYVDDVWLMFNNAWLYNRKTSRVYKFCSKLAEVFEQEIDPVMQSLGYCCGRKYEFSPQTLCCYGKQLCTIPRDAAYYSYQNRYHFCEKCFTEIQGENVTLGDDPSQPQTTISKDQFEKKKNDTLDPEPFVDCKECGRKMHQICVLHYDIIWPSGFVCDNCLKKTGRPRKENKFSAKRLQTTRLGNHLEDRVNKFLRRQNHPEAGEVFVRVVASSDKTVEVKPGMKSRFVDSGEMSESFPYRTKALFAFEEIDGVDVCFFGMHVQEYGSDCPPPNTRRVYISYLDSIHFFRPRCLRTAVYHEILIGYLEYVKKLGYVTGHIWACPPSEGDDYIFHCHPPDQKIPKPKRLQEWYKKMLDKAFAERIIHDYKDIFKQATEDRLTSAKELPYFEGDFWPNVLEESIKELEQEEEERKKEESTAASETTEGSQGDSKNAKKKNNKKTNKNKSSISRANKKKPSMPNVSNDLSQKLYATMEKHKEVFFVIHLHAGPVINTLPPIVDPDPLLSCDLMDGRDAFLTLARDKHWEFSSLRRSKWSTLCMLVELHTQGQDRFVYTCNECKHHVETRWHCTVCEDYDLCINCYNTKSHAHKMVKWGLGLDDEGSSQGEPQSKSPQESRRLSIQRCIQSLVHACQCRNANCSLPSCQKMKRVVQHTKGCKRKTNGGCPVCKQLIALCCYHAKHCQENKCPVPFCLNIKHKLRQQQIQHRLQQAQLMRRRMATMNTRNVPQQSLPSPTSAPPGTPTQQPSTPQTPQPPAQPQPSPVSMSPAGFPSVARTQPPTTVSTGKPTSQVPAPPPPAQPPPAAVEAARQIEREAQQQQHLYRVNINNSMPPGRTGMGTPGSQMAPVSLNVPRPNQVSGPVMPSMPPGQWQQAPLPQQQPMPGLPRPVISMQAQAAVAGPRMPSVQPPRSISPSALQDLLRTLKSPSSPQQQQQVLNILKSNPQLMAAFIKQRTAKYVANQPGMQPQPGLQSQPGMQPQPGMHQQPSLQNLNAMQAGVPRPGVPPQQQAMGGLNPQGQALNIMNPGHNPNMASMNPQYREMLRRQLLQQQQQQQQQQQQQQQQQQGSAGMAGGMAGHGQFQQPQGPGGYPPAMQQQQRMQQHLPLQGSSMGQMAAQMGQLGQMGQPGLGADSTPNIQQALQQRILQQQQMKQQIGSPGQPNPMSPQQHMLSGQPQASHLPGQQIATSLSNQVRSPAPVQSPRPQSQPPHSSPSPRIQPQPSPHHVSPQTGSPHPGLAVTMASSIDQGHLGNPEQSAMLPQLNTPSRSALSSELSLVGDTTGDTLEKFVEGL

| EC50 (AR / CBP ternary complex) [nM] | IC50 (VCaP cells) [nM] | SMILES |
| --- | --- | --- |
| < 1 | ≤ 0.1 | CC(=O)N1CCc2c(c(N3CCCc4cc(-c5cnn(C)c5)c(C)cc43)nn2C2CCN(CC3CCN(c4ccc(C(=O)N[C@H]5CC[C@H](Oc6ccc(C#N)c(C)c6)CC5)nn4)CC3(C)C)CC2)C1 (stereo partly drawn) [Compound 293, 6-[4-[[4-[5-acetyl-3-[7-methyl-6-(1-methylpyrazol-4-yl)-3,4-dihydro-2H-quinolin-1-yl]-6,7-dihydro-4H-pyrazolo[4,3-c]pyridin-1-yl]-1-piperidyl]methyl]-3,3-dimethyl-1-piperidyl]-N-[4-(4-cyano-3-methyl-phenoxy)cyclohexyl]pyridazine-3-carboxamide] |
| < 1 | ≤ 0.1 | CC(=O)N1CCc2c(c(N3CCCc4cc(-c5cnn(C)c5)c(C(F)F)cc43)nn2C2CCN(C(=O)C3CCN(c4ccc(C(=O)N[C@H]5CC[C@H](Oc6ccc(C#N)c(Cl)c6)CC5)cc4)CC3)CC2)C1 [Compound 159, 4-[4-[4-[5-acetyl-3-[7-(difluoromethyl)-6-(1-methylpyrazol-4-yl)-3,4-dihydro-2H-quinolin-1-yl]-6,7-dihydro-4H-pyrazolo[4,3-c]pyridin-1-yl]piperidine-1-carbonyl]-1-piperidyl]-N-[4-(3-chloro-4-cyano-phenoxy)cyclohexyl]benzamide] |
| 1 to 10 | 0.1 to 1 | CC(=O)N1CCc2c(c(N3CCCc4cc(-c5cnn(C)c5)c(C(F)F)cc43)nn2C2CC3(C2)CN(C(=O)C2CC4(C2)CN(c2ccc(C(=O)N[C@H]5CC[C@H](Oc6ccc(C#N)c(Cl)c6)CC5)nn2)C4)C3)C1 (stereo partly drawn) [Compound 40, 6-[6-[6-[5-acetyl-3-[7-(difluorodimethyl)-6-(1-methylpyrazol-4-yl)-3,4-dihydro-2H-quinolin-1-yl]-6,7-dihydro-4H-pyrazolo[4,3-c]pyridin-1-yl]-2-azaspiro[3.3]heptane-2-carbonyl]-2-azaspiro[3.3]heptan-2-yl]-N-[4-(3-chloro-4-cyano-phenoxy)cyclohexyl]pyridazine-3-carboxamide] |
| < 1 | > 100 | Cn1c(=O)sc2ccc(-c3cccc4cc(-c5ccc(CCC6CCN(c7ccc(C(=O)N[C@H]8CC[C@H](Oc9ccc(C#N)c(Cl)c9)CC8)nn7)CC6)nc5)ncc34)cc21 [Compound 55, N-[4-(3-chloro-4-cyano-phenoxy)cyclohexyl]-6-[4-[2-[5-[8-(3-methyl-2-oxo-1,3-benzothiazol-5-yl)-3-isoquinolyl]-2-pyridyl]ethyl]-1-piperidyl]pyridazine-3-carboxamide] |
| < 1 | 0.1 to 1 | CC(=O)N1CCc2c(c(-c3cccc4cc(-c5ccc(CCC6CCN(c7ccc(C(=O)N[C@H]8CC[C@H](Oc9ccc(C#N)c(Cl)c9)CC8)cn7)CC6)cc5)ncc34)nn2C2CCOCC2)C1 [Compound 166, 6-[4-[2-[4-[8-(5-acetyl-1-tetrahydropyran-4-yl-6,7-dihydro-4H-pyrazolo[4,3-c]pyridin-3-yl)-3-isoquinolyl]phenyl]ethyl]-1-piperidyl]-N-[4-(3-chloro-4-cyano-phenoxy)cyclohexyl]pyridine-3-carboxamide] |

| SMILES | EC50 (AR / CBP ternary complex) [nM] | IC50 (VCaP cells) [nM] |
| --- | --- | --- |
| CC(=O)N1CCc2c(c(N3CCCc4cc(-c5cnn(C)c5)c(C(F)F)cc43)nn2C2CCN([C@H]3C[C@H](Oc4ccc(C(=O)N[C@H]5CC[C@H](Oc6ccc(C#N)c(Cl)c6)CC5)nn4)C3)CC2)C1 [Compound 240, 6-[3-[4-[5-acetyl-3-[7-(difluoromethyl)-6-(1-methylpyrazol-4-yl)-3,4-dihydro-2H-quinolin-1-yl]-6,7-dihydro-4H-pyrazolo[4,3-c]pyridin-1-yl]-1-piperidyl]cyclobutoxy]-N-[4-(3-chloro-4-cyano-phenoxy)cyclohexyl]pyridazine-3-carboxamide] | < 1 | 0.1 to 1 |
